{
  "source": "patent US20220117940A1",
  "about": "“COMPOSITION FOR INCREASING PREGNANCY RATE OF RUMINANTS AND PREPARATION METHOD AND APPLICATION THEREOF” (CHINA AGRICULTURAL UNIVERSITY, priority 2020, published 2022)",
  "key": {"[1]": {"test": "Serum MT concentration after melatonin injection in cows exposed to ovsynch TAI (liquid chromatography)", "details": "melatonin injected with last dose of GnRH, PG-PG-GnRH-PG-GnRH ovsynch TAI, mean ± standard error, P<0.05 vs no melatonin"}, "[2]": {"tested_on": "Holstein cows exposed to TAI", "test": "Pregnancy and calving rates of cows exposed to ovsynch TAI with melatonin injection", "format": "in vivo", "procedure": "A melatonin injection of 2-3 mL was injected in combination with the injection of GnRH of ovsynch TAI in cows (as shown in FIG. 1), with B-scan pregnancy tests on Days 32-35, or pregnancy tests by recto-vaginal technique on Day 60. The pregnancy rates were calculated.\n2 mL of the injection prepared in Example 1 was administrated together with the last injection of GnRH to multipara Holstein cows (1-3 pregnancies) exposed to postpartum ovsynch TAI. In this process, a randomized administration approach was used, for example administer to every other cow in which the first cow was administrated, the second was not administrated, the third was administrated, and so on.\n(§1) 50 to 60 days after the insemination, the pregnancy tests were performed on the Holstein cows by means of rectal examination. Alternatively, 32 days after the insemination, the pregnancy rates were calculated by means of B-scan ultrasonography and pregnancy detection kits."}, "[3]": {"tested_on": "Holstein cows exposed to natural ovulation", "test": "Pregnancy and calving rates of cows exposed to natural ovulation with melatonin injection", "format": "in vivo", "procedure": "as §1"}, "mouse": {"tested_on": "mouse", "details": "5 mg/kg injected before the MT1 receptor peak; cited from earlier work"}, "[4]": {"tested_on": "cows exposed to TAI or natural ovulation", "test": "Pregnancy and calving rates of first insemination in cows (TAI or natural ovulation) with melatonin injection", "format": "in vivo, Holstein cows", "procedure": "as §1"}, "Holstein cows": {"tested_on": "Holstein cows", "test": "Serum reproductive hormone levels after melatonin injection in cows exposed to ovsynch TAI", "format": "in vivo", "details": "mean ± standard error; for P (progesterone) levels: pregnant cows, Day 30 of pregnancy; for P (progesterone) levels / E2 (estradiol) levels / LH levels: P<0.05; for E2 (estradiol) levels / LH levels / FSH levels: serum; for E2 (estradiol) levels / LH levels: 8 hours after injection of GnRH plus melatonin; for FSH levels: after melatonin with last dose of GnRH, no significant change (P>0.05)", "excerpt": "The process is substantially same as that of Example 2, except that blood was collected at each stage from ovsynch TAI to pregnancy tests, in order to determine the changes in relevant reproductive hormones in ovulating cows."}, "[5]": {"details": "first insemination, TAI plus natural ovulation, of 162"}},
  "note": "Marks after values point to notes of the source that are not given here.",
  "data": [
    {"compound": "COc1ccc2[nH]cc(CCNC(C)=O)c2c1", "note": "[Melatonin, N-acetyl-5-methoxytryptamine]", "values": [
      {"measurement": "MT levels in blood (serum)", "setting": "[1]", "result": "4.35±0.53"},
      {"measurement": "MT levels in blood (serum)", "setting": "[1]; listed as MT", "result": "4.3465±0.5286"},
      {"measurement": "Pregnancy rate", "setting": "[2]; TAI, 2 mL of 15 mg/mL injection with last GnRH, P<0.05 vs control", "result": 36.26, "unit": "%^a"},
      {"measurement": "Number of pregnant cows", "setting": "[2]; TAI, 2 mL of 15 mg/mL injection with last GnRH, of 91 cows", "result": 33},
      {"measurement": "Calving rate", "setting": "[2]; TAI, P<0.05 vs control", "result": 25.27, "unit": "%^a"},
      {"measurement": "Number of calves", "setting": "[2]; TAI, of 91 cows", "result": 23},
      {"measurement": "Increase of pregnancy rate relative to control", "setting": "[2]; multipara cows, ovsynch TAI, 9.68/26.58", "result": "more than 36.42%"},
      {"measurement": "Increase of pregnancy rate", "setting": "[2]; preparation comprising melatonin of 15 mg/mL, cows exposed to ovsynch TAI", "result": 11, "unit": "%"},
      {"measurement": "Increase of pregnancy rate relative to control", "setting": "[3]; 14.60/26.25", "result": "more than 55.62%"},
      {"measurement": "Calving rate", "setting": "[3]; P<0.05 vs control", "result": 29.58, "unit": "%^A"},
      {"measurement": "Pregnancy rate", "setting": "[3]; P<0.05 vs control", "result": 40.85, "unit": "%^A"},
      {"measurement": "Number of calves", "setting": "[3]; of 71 cows", "result": 21},
      {"measurement": "Number of pregnant cows", "setting": "[3]; of 71 cows", "result": 29},
      {"measurement": "Expression of corpus luteum marker genes Akr1c18 and Cyp11a1", "setting": "mouse", "result": "upregulate"},
      {"measurement": "Level of progesterone in mouse serum", "setting": "mouse", "result": "significantly increase"},
      {"measurement": "Increase of pregnancy rate relative to control", "setting": "[4]; TAI or natural ovulation, 11.85/26.42", "result": "more than 44.85%"},
      {"measurement": "Pregnancy rate of first insemination", "setting": "[4]; TAI plus natural ovulation, P<0.05 vs control", "result": 38.27, "unit": "%^a"},
      {"measurement": "Calving rate", "setting": "[4]; first insemination, TAI plus natural ovulation, P<0.05 vs control", "result": 27.16, "unit": "%^a"},
      {"measurement": "Number of calves", "setting": "[4]; [5]", "result": 44},
      {"measurement": "Number of pregnant cows", "setting": "[4]; [5]", "result": 62},
      {"measurement": "P (progesterone) levels", "setting": "Holstein cows", "result": "0.18±0.02"},
      {"measurement": "P (progesterone) levels", "setting": "Holstein cows; listed as MT", "result": "0.1825±0.0235"},
      {"measurement": "E2 (estradiol) levels", "setting": "Holstein cows", "result": "11.68±0.88"},
      {"measurement": "LH levels", "setting": "Holstein cows", "result": "5.02±0.23"},
      {"measurement": "E2 (estradiol) levels", "setting": "Holstein cows; listed as MT", "result": "11.678±0.8834"},
      {"measurement": "LH levels", "setting": "Holstein cows; listed as MT", "result": "5.022±0.2324"},
      {"measurement": "FSH levels", "setting": "Holstein cows", "result": "2.48±0.25"},
      {"measurement": "FSH levels", "setting": "Holstein cows; listed as MT", "result": "2.482±0.2463"}
    ]}
  ]
}
